Tests used:
[1] = system: human microvascular endothelial cell line (HMEC-1); experiment: C3 deposition on ADP-activated HMEC-1 exposed to STEC-HUS patient serum; type: cell-based; settings: for reduction of C3 deposition on ADP-activated HMEC-1: STEC-HUS patient serum, 4 hours, p<0.0001
Description: As described in Morigi et al., 2011 (Morigi M, Galbusera M, Gastoldi S, Locatelli, M, Buelli, S, Pezzotta A, Pagani C, Noris M, Gobbi M, Stravalaci M, Rottoli D, Tedesco F, Remuzzi G and Joja C: 2011. Alternative pathway activation of complement by Shiga toxin promotes exuberant C3a formation that triggers microvascular thrombosis. J Immunol. 187(1):172-80), human microvascular endothelial cell line of dermal origin (HMEC-1, ATCC CRL-3243) were plated on glass slides and used when confluent. […]. At the end of the incubation step HMEC-1 were treated with fluorochrome-conjugated anti-human C3c. In each experiment, a pool of sera from healthy controls was tested in parallel with patient serum. A confocal inverted laser microscope was used for acquisition of the fluorescent staining on endothelial cell surface.
Fifteen fields per sample were acquired and the area occupied by the fluorescent staining was evaluated by automatic edge detection using built-in specific functions of the software Image J and expressed as pixel2 per field analyzed. The highest and lowest values were discarded and the mean±SE was calculated on the remaining 13 fields.
Results: Serum from patients with acute STEC-HUS induced a massive C3 deposition on ADP-activated endothelial cells in respect to sera from healthy controls (P<0.0001). […].

[2] = system: passive Heymann nephritis in rats; experiment: Passive Heymann nephritis in rats (model for membranous nephropathy); type: in vivo, rat; settings: for combined histopathology score: p<0.005; for reduction of proteinuria: twice daily oral gavage, 14 days post transfer, p<0.0001; for proteinuria: 60 mg/kg twice daily oral gavage starting 6 days post serum transfer
Description: 4. FB Inhibitor Prevents the Development and Progression of Passive Heymann Nephritis in Rats
Passive Heymann nephritis in the rat is the most common animal model for membranous nephropathy (see Jefferson J A, Pippin J W and Shankland S J 2010. Experimental Models of membranous nephropathy. Drug Discov Today Dis Models. 7(1-2):27-33). It is induced by the transfer of a polyclonal serum derived from rabbits immunized with rat megalin and manifests inflammatory changes in the kidney that are highly reminiscent with the human disease. Significant proteinuria is observed 4 days after the antibody transfer and increases until 2 weeks post transfer.

SMILES: CCO[C@H]1CCN(Cc2c(OC)cc(C)c3[nH]ccc23)[C@H](c2ccc(C(=O)O)cc2)C1 [compound of embodiment 5, 4-((2S,4S)-4-ethoxy-1-((5-methoxy-7-methyl-1H-indol-4-yl)methyl)piperidin-2-yl)benzoic acid]
- reduction of C3 deposition on ADP-activated HMEC-1 ([1]; 1 microM): 73%
- reduction of C3 deposition on ADP-activated HMEC-1 ([1]; 10 microM): 89%
- C3 deposits on endothelial cells versus cells exposed to control sera ([1]; 10 microM, STEC-HUS serum): did not significantly differ
- combined histopathology score ([2]; prophylactic, 20 mg/kg, vehicle 2.2): 0.3
- combined histopathology score ([2]; prophylactic, 60 mg/kg, vehicle 2.2): 0.4
- reduction of proteinuria ([2]; prophylactic, 20 mg/kg/d): 82%
- reduction of proteinuria ([2]; prophylactic, 60 mg/kg/d): 75%
- proteinuria ([2]; therapeutic, day 6 (control 0.79)): 0.74
- proteinuria ([2]; therapeutic, day 14 (control 1.93)): 0.81
- effect on disease progression ([2]; therapeutic, 60 mg/kg twice daily oral gavage starting after manifestation of proteinuria (6 days post serum transfer)): blocked further progression of the disease
- combined histopathology score ([2]; therapeutic, 60 mg/kg twice daily oral gavage starting day 6, vehicle 2.7): 1.1

Reference: patent publication US12285422B2, “Uses of piperidinyl-indole derivatives” (priority 2017, dated 2025)
